From the supplement of paper PMC11061612

Legend:
[1] = compound: CC(=O)c1c(C)c2cnc(Nc3ccc(N4CCNCC4)cn3)nc2n(C2CCCC2)c1=O [Palbociclib]; conditions: max 10 µM
Outline: (§1)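 Cancer cell lines in 1536-well plates (7.5 μl DMEM/F12 or RPMI, 10% FBS) were held 24 hours at 37°C and 5% CO2 and then dosed for 72 hours at a final DMSO of typically 0.2%. Viability was taken from CellTiter-Glo 2.0 luminescence, scaled between blank-well and DMSO-well means. Curves were fitted as two-parameter logistic models with a non-linear mixed effects model, from which the single-agent IC50 was taken.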

[2] = compound: CC(C)n1c(=O)n(C)c2cnc3cc(F)c(-c4ccc(OCCCN5CCCCC5)nc4)cc3c21 [AZD1390]; conditions: max 0.3 µM
Outline: as §1

[3] = compound: C1CC(C1)(C(=O)[O-])C(=O)[O-].N.N.[Pt+2] [Carboplatin]; conditions: max 10 µM
Outline: as §1

[4] = compound: C[C@@H](Nc1cc(F)cc(F)c1)c1cc(C(=O)N(C)C)cc2c(=O)cc(N3CCOCC3)oc12 [AZD8186]; conditions: max 10 µM
Outline: as §1

[5] = compound: Cc1cc2ncnn2cc1Nc1ncc2c(n1)n(C1CCOCC1)c(=O)n2C [AZD7648]; conditions: max 10 µM
Outline: as §1

[6] = compound: COc1cc(Nc2ncc3c(n2)-c2ccc(Cl)cc2C(c2c(F)cccc2OC)=NC3)ccc1C(=O)O [Alisertib]; conditions: max 10 µM
Outline: as §1

[7] = compound: CC1(C)CCC(CN2CCN(c3ccc(C(=O)NS(=O)(=O)c4ccc(NCC5CCOCC5)c([N+](=O)[O-])c4)c(Oc4cnc5[nH]ccc5c4)c3)CC2)=C(c2ccc(Cl)cc2)C1 [Venetoclax]; conditions: max 1 µM
Outline: as §1

[8] = compound: CC1=C(C(=CC=C1)Cl)NC(=O)C2=CN=C(S2)NC3=CC(=NC(=N3)C)N4CCN(CC4)CCO [Dasatinib]; conditions: max 2 µM
Outline: as §1

[9] = compound: C=CCn1c(=O)c2cnc(Nc3ccc(N4CCN(C)CC4)cc3)nc2n1-c1cccc(C(C)(C)O)n1 [AZD1775]; conditions: max 3 µM
Outline: as §1

[10] = compound: C[C@@H](Oc1cc(-c2cnn(C3CCNCC3)c2)cnc1N)c1c(Cl)ccc(F)c1Cl [Crizotinib]; conditions: max 10 µM
Outline: as §1

[11] = compound: O=c1[nH]cc(F)c(=O)[nH]1 [5-Fluorouracil]; conditions: max 20 µM
Outline: as §1

[12] = compound: CC(=O)Nc1cccc(-n2c(=O)n(C3CC3)c(=O)c3c(Nc4ccc(I)cc4F)n(C)c(=O)c(C)c32)c1 [Trametinib]; conditions: max 1 µM
Outline: as §1

[13] = compound: CN(C)CCCOc1ccc(-c2ccc3ncc4c(c3c2)n(C2CCOCC2)c(=O)n4C)cn1 [AZD0156]; conditions: max 3 µM
Outline: as §1

[14] = compound: CCc1c2c(nc3ccc(O)cc13)-c1cc3c(c(=O)n1C2)COC(=O)[C@]3(O)CC [SN-38]; conditions: max 0.3 µM
Outline: as §1

[15] = compound: NC1(c2ccc(-c3nc4ccn5c(=O)[nH]nc5c4cc3-c3ccccc3)cc2)CCC1 [MK-2206]; conditions: max 10 µM
Outline: as §1

[16] = compound: CCN(CCO)CCCOc1ccc2c(Nc3cc(CC(=O)Nc4cccc(F)c4)[nH]n3)ncnc2c1 [AZD2811]; conditions: max 1 µM
Outline: as §1

[17] = compound: C[C@@H](c1ccc2nccn2c1)n1nnc2ncc(-c3cnn(C)c3)nc21 [Savolitinib]; conditions: max 1 µM
Outline: as §1

[18] = compound: Cc1c2c(nn1C)CSCc1cc(n(C)n1)CSc1cc(c3ccccc3c1)OCCCc1c(C(=O)O)n(C)c3c-2c(Cl)ccc13 [AZD5991]; conditions: max 1 µM
Outline: as §1

[19] = compound: O=C(Nc1ccc2[nH]nc(-c3ccncc3)c2c1)[C@@H]1CCN(CC(=O)N2CCN(c3ccc(-c4ncccn4)cc3)CC2)C1; conditions: max 5 µM
Outline: as §1

[20] = compound: COc1cc2ncnc(Nc3ccc(F)c(Cl)c3)c2cc1OCCCN1CCOCC1 [Gefitinib]; conditions: max 10 µM
Outline: as §1

[21] = compound: COc1cccc(OCCCN)c1-c1cc(Nc2cnc(C#N)cn2)n[nH]1 [Prexasertib]; conditions: max 1 µM
Outline: as §1

[22] = compound: COc1cc([C@@H]2c3cc4c(cc3[C@@H](O[C@@H]3O[C@@H]5CO[C@@H](C)O[C@H]5[C@H](O)[C@H]3O)[C@H]3COC(=O)[C@H]23)OCO4)cc(OC)c1O [Etoposide]; conditions: max 10 µM
Outline: as §1

[23] = compound: CC(=O)O[C@H]1C(=O)[C@@]2(C)[C@H]([C@H](OC(=O)c3ccccc3)[C@]3(O)C[C@H](OC(=O)[C@H](O)[C@@H](NC(=O)c4ccccc4)c4ccccc4)C(C)=C1C3(C)C)[C@]1(OC(C)=O)CO[C@@H]1C[C@@H]2O [Paclitaxel]; conditions: max 3 µM
Outline: as §1

[24] = compound: COc1nnc2ccc(N3CCC(c4ccc(OCCN5CCN(C)C(=O)[C@H]5C)cc4)CC3)nn12 [AZD5153]; conditions: max 1 µM
Outline: as §1

[25] = compound: O=C(c1cc(Cc2n[nH]c(=O)c3ccccc23)ccc1F)N1CCN(C(=O)C2CC2)CC1 [Olaparib]; conditions: max 10 µM
Outline: as §1

[26] = compound: CS(=O)(=O)CCNCc1ccc(-c2ccc3ncnc(Nc4ccc(OCc5cccc(F)c5)c(Cl)c4)c3c2)o1 [Lapatinib]; conditions: max 10 µM
Outline: as §1

[27] = compound: Cn1cnc2c(F)c(Nc3ccc(Br)cc3Cl)c(C(=O)NOCCO)cc21 [Selumetinib]; conditions: max 10 µM
Outline: as §1

[28] = compound: C[C@@H]1COCCN1C2=NC(=NC(=C2)C3(CC3)[S@](=N)(=O)C)C4=C5C=CNC5=NC=C4 [AZD6738]; conditions: max 10 µM
Outline: as §1

[29] = compound: Cc1nc(-c2cn3c(n2)-c2ccc(-c4cnn(C(C)(C)C(N)=O)c4)cc2OCC3)n(C(C)C)n1 [Taselisib]; conditions: max 10 µM
Outline: as §1

[30] = compound: C1CN(CCC1(C(=O)N[C@@H](CCO)C2=CC=C(C=C2)Cl)N)C3=NC=NC4=C3C=CN4 [AZD5363]; conditions: max 10 µM
Outline: as §1

[31] = compound: CN(CC[C@H](CSC1=CC=CC=C1)NC2=C(C=C(C=C2)S(=O)(=O)NC(=O)C3=CC=C(C=C3)N4CCC(CC4)[C@H](C5=CC=CC=C5C6=CC=C(C=C6)Cl)O)S(=O)(=O)C(F)(F)F)CCO [AZD4320]; conditions: max 1 µM
Outline: as §1

[32] = compound: N#Cc1cnc(Nc2cc(NC[C@H]3CNCCO3)c(C(F)(F)F)cn2)cn1 [SRA737]; conditions: max 10 µM
Outline: as §1

[33] = compound: Nc1ccn([C@@H]2O[C@H](CO)[C@@H](O)C2(F)F)c(=O)n1 [Gemcitabine]; conditions: max 0.3 µM
Outline: as §1

[34] = compound: COc1cccc2c1C(=O)c1c(O)c3c(c(O)c1C2=O)C[C@@](O)(C(=O)CO)C[C@@H]3O[C@H]1C[C@H](N)[C@H](O)[C@H](C)O1 [Doxorubicin]; conditions: max 1 µM
Outline: as §1

[35] = compound: CC1=CN2[C@@H](C1)C=NC3=CC(=C(C=C3C2=O)OC)OCCCCCOC4=C(C=C5C(=C4)N=C[C@@H]6CC(=CN6C5=O)C)OC [SG3199]; conditions: max 0.001 µM
Outline: as §1

Row | Cell Line | IC50, cell viability 72 h [1] [µM] | IC50, cell viability 72 h [2] [µM] | IC50, cell viability 72 h [3] [µM] | IC50, cell viability 72 h [4] [µM] | IC50, cell viability 72 h [5] [µM] | IC50, cell viability 72 h [6] [µM] | IC50, cell viability 72 h [7] [µM] | IC50, cell viability 72 h [8] [µM] | IC50, cell viability 72 h [9] [µM] | IC50, cell viability 72 h [10] [µM] | IC50, cell viability 72 h [11] [µM] | IC50, cell viability 72 h [12] [µM] | IC50, cell viability 72 h [13] [µM] | IC50, cell viability 72 h [14] [µM] | IC50, cell viability 72 h [15] [µM] | IC50, cell viability 72 h [16] [µM] | IC50, cell viability 72 h [17] [µM] | IC50, cell viability 72 h [18] [µM] | IC50, cell viability 72 h [19] [µM] | IC50, cell viability 72 h [20] [µM] | IC50, cell viability 72 h [21] [µM] | IC50, cell viability 72 h [22] [µM] | IC50, cell viability 72 h [23] [µM] | IC50, cell viability 72 h [24] [µM] | IC50, cell viability 72 h [25] [µM] | IC50, cell viability 72 h [26] [µM] | IC50, cell viability 72 h [27] [µM] | IC50, cell viability 72 h [28] [µM] | IC50, cell viability 72 h [29] [µM] | IC50, cell viability 72 h [30] [µM] | IC50, cell viability 72 h [31] [µM] | IC50, cell viability 72 h [32] [µM] | IC50, cell viability 72 h [33] [µM] | IC50, cell viability 72 h [34] [µM] | IC50, cell viability 72 h [35] [µM]
1 | NCI-H2342 (Lung Adenocarcinoma) | > 10 | > 0.3 | > 10 | > 10 | > 10 | > 10 | > 1 | > 2 | > 3 | > 10 | > 20 | > 1 | > 3 | > 0.3 | > 10 | > 1 | > 1 | > 1 | > 5 | > 10 | > 1 | > 10 | 0.027 | > 1 | > 10 | > 10 | > 10 | > 10 | > 10 | > 10 | > 1 | > 10 | > 0.3 | > 1 | > 0.001
2 | OPM-2 (Plasma Cell Myeloma) | 8.6 | > 0.3 | > 10 | > 10 | > 10 | 5.67 | > 1 | > 2 | 0.559 | 4.23 | > 20 | 0.67 | > 3 | 0.108 | 4.97 | > 1 | > 1 | 0.0323 | > 5 | > 10 | 0.0213 | 9.35 | 0.00668 | 0.0126 | > 10 | > 10 | > 10 | 3.92 | 0.815 | 1.12 | 0.691 | 4.98 | 0.098 | 0.754 | > 0.001
3 | OVMIU (Ovarian Carcinoma) | > 10 | > 0.3 | > 10 | > 10 | > 10 | 7.01 | > 1 | 0.209 | 1.72 | > 10 | > 20 | 0.07 | > 3 | > 0.3 | > 10 | > 1 | > 1 | > 1 | 3.19 | 3.2 | 0.267 | > 10 | 0.0777 | 0.302 | > 10 | 3.24 | > 10 | > 10 | 0.148 | > 10 | > 1 | > 10 | > 0.3 | 0.801 | > 0.001
4 | PANC-03-27 (Pancreatic Carcinoma) | > 10 | > 0.3 | > 10 | > 10 | > 10 | > 10 | > 1 | 1.76 | 0.184 | > 10 | > 20 | 0.271 | > 3 | 0.0498 | > 10 | > 1 | > 1 | > 1 | 3.08 | > 10 | 0.00787 | > 10 | 0.214 | > 1 | > 10 | > 10 | > 10 | 2.57 | 4.6 | > 10 | > 1 | 3.4 | 0.183 | > 1 | > 0.001
5 | PSN1 (Pancreatic Carcinoma) | > 10 | > 0.3 | > 10 | > 10 | > 10 | > 10 | > 1 | 0.244 | 1.63 | 7.76 | 7.84 | 0.0186 | > 3 | 0.11 | > 10 | > 1 | > 1 | > 1 | 0.193 | > 10 | > 1 | 8.6 | 0.0619 | > 1 | > 10 | > 10 | 0.952 | > 10 | 5.38 | > 10 | > 1 | > 10 | 0.0336 | > 1 | > 0.001
